Experimental data reported in patent publication US8536168B2 (Novartis AG, priority 2007, dated 2013).
Like-named read-outs stand apart in the source and are kept apart here.

What was measured:
Gli-luciferase activity = test: Reporter gene assay (RGA) in TMHh12 cells, antagonism of Gli-luciferase activity in the presence of a Smo agonist; format: cell-based
Experimental: Activity of the compounds was evaluated using a reporter gene assay (RGA) in TMHh12 cells.

[1] = molecular target: human Smoothened receptor (Homo sapiens, UniProt Q99835); test: Smo binding assay, displacement of radio-labeled smoothened agonist, filter binding format (human); conditions: displacement of small molecule agonist of Smoothened, read-out: Human Smo bdg., IC50
Description: A Smo binding assay was developed using radio-labeled smoothened agonist for compound competition. Table 9 lists the IC50 for displacement of a small molecule agonist of Smoothened determined in a filter binding format for the mouse and human Smoothened receptor.

[2] = molecular target: mouse Smoothened receptor (Mus musculus, UniProt P56726); test: Smo binding assay, displacement of radio-labeled smoothened agonist, filter binding format (mouse); conditions: displacement of small molecule agonist of Smoothened, read-out: Mouse Smo bdg., IC50
Description: A Smo binding assay was developed using radio-labeled smoothened agonist for compound competition.

[3] = 25 nM small molecule Smo agonist, read-out: RGA (25 nM Smo agonist) IC50
[4] = read-out: RGA (1 nM Smo agonist) IC50, 1 nM small molecule Smo agonist

human Smoothened receptor, sequence (Q99835 28-787): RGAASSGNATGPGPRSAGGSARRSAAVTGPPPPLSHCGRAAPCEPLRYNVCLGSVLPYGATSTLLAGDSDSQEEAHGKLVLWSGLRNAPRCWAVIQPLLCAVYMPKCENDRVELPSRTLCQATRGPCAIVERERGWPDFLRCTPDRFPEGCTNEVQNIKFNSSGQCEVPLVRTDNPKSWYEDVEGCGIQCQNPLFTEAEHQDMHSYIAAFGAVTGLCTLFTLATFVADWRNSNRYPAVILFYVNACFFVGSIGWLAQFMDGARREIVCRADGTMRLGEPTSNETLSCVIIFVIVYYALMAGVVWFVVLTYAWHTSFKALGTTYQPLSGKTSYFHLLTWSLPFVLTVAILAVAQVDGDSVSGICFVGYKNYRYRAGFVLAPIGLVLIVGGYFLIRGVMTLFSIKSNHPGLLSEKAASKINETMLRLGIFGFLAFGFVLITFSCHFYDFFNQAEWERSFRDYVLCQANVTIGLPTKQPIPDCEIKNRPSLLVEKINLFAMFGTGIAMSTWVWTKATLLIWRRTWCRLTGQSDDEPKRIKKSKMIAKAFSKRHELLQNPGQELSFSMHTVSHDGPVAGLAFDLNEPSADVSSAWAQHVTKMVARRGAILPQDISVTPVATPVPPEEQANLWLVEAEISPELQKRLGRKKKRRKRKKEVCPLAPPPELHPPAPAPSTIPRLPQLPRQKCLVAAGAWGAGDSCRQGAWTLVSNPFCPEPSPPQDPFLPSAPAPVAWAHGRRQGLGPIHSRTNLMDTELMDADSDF
mouse Smoothened receptor, sequence (P56726 33-793): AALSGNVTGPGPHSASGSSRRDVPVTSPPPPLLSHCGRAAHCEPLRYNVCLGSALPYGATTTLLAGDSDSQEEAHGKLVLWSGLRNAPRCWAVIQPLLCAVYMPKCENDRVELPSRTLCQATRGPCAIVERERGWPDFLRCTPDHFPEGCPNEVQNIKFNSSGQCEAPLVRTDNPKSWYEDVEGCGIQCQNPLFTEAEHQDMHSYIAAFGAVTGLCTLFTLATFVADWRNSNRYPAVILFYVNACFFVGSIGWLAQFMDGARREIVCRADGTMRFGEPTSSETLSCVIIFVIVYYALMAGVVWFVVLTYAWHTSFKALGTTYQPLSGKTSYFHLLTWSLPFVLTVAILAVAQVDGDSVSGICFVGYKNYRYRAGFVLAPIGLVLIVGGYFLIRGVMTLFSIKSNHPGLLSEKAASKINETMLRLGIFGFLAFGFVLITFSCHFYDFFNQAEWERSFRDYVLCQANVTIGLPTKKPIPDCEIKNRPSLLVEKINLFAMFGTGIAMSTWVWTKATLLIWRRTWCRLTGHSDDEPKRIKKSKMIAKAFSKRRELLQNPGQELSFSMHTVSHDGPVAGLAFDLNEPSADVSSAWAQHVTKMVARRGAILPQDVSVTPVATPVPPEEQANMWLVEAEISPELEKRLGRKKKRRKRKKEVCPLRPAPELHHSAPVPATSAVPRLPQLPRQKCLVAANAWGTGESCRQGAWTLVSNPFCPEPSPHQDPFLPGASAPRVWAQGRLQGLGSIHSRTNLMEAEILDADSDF

Row | Compound | IC50 (Gli-luciferase activity; [3]) | IC50 (Gli-luciferase activity; [4]) | IC50 [1] | IC50 [2]
1 | N#Cc1ccc(N2CCN(c3nnc(Cc4ccccc4Cl)c4ccccc34)CC2)nc1 [Example 174] | 1 to 10 µM | < 0.1 µM | 0.1 to 1 µM | 0.1 to 1 µM
2 | COc1ccccc1Cc1nnc(N2CCN(c3ccc(C#N)cn3)CC2)c2ccccc12 [Example 175] | 1 to 10 µM | 0.1 to 1 µM | 1 to 10 µM | 0.1 to 1 µM
3 | N#Cc1ccc(N2CCN(c3nnc(Cc4ccc(Cl)c(Cl)c4)c4ccccc34)CC2)nc1 [Example 176] | 1 to 10 µM | 0.1 to 1 µM | 0.1 to 1 µM | 0.1 to 1 µM
4 | COC(=O)c1ccc(Cc2nnc(N3CCN(c4ccc(C#N)cn4)CC3)c3ccccc23)cc1 [Example 179] | 10 to 40 µM | 0.1 to 1 µM | 0.1 to 1 µM | 0.1 to 1 µM
5 | N#Cc1ccc(N2CCN(c3nnc(Cc4ccc(C(=O)O)cc4)c4ccccc34)CC2)nc1 [Example 180] | 10 to 40 µM | 1 to 10 µM | 10 to 40 µM | 10 to 40 µM
6 | CCOC(=O)c1ccc(N2CCN(c3nnc(Cc4ccc(F)cc4)c4ccccc34)CC2)nc1 [Example 183] | 1 to 10 µM | 0.1 to 1 µM | < 0.1 µM | < 0.1 µM
7 | CCOC(=O)c1ccc(N2CCN(c3nnc(Cc4cccc(F)c4)c4ccccc34)CC2)nc1 [Example 185] | 1 to 10 µM | 0.1 to 1 µM | < 0.1 µM | < 0.1 µM
8 | CCOC(=O)c1ccc(N2CCN(c3nnc(Cc4ccc(Cl)cc4Cl)c4ccccc34)CC2)nc1 [Example 186] | 0.1 to 1 µM | 0.1 to 1 µM | < 0.1 µM | < 0.1 µM
9 | CCOC(=O)c1ccc(N2CCN(c3nnc(Cc4ccc(F)cc4F)c4ccccc34)[C@@H](C)C2)nc1 [Example 187] | 0.1 to 1 µM | < 0.1 µM | < 0.1 µM | < 0.1 µM
10 | CCOC(=O)c1ccc(N2CCN(c3nnc(Cc4ccccc4Cl)c4ccccc34)[C@@H](C)C2)nc1 [Example 188] | 0.1 to 1 µM | < 0.1 µM | < 0.1 µM | < 0.1 µM
11 | CC(C)(O)c1ccc(N2CCN(c3nnc(Cc4ccccc4Cl)c4ccccc34)CC2)nc1 [Example 192] | 0.1 to 1 µM | < 0.1 µM | < 0.1 µM | < 0.1 µM
12 | Cc1ccccc1Cc1nnc(N2CCN(c3ccc(C(C)(C)O)cn3)CC2)c2ccccc12 [Example 194] | 0.1 to 1 µM | < 0.1 µM | < 0.1 µM | < 0.1 µM
13 | CN(CCO)C(=O)c1ccc(N2CCN(c3nnc(Cc4ccc(F)cc4)c4ccccc34)CC2)nc1 [Example 198, 6-{4-[4-(4-Fluoro-benzyl)-phthalazin-1-yl]-piperazin-1-yl}-N-(2-hydroxyethyl)-N-methyl-nicotinamide] | 0.1 to 1 µM | < 0.1 µM | < 0.1 µM | < 0.1 µM
14 | CN(CCO)C(=O)c1ccc(N2CCN(c3nnc(Cc4ccc(F)cc4F)c4ccccc34)CC2)nc1 [Example 199] | 0.1 to 1 µM | < 0.1 µM | 0.1 to 1 µM | 0.1 to 1 µM
15 | CN(CCO)C(=O)c1ccc(N2CCN(c3nnc(Cc4ccccc4Cl)c4ccccc34)CC2)nc1 [Example 200] | 0.1 to 1 µM | < 0.1 µM | < 0.1 µM | < 0.1 µM
16 | CN(CCO)C(=O)c1ccc(N2CCN(c3nnc(Cc4ccc(Cl)c(Cl)c4)c4ccccc34)CC2)nc1 [Example 201] | 0.1 to 1 µM | < 0.1 µM | < 0.1 µM | < 0.1 µM
17 | CCOC(=O)c1ccc(N2CCN(c3nnc(CN4CCOCC4)c4ccccc34)CC2)nc1 [Example 203, 6-[4-(4-Morpholin-4-ylmethyl-phthalazin-1-yl)-piperazin-1-yl]-nicotinic acid ethyl ester] | 1 to 10 µM | 0.1 to 1 µM | 0.1 to 1 µM | 0.1 to 1 µM
18 | CCC(=O)NCc1ccc(N2CCN(c3nnc(Cc4ccccc4)c4ccccc34)CC2)nc1 [Example 207] | 0.1 to 1 µM | < 0.1 µM | 0.1 to 1 µM | 0.1 to 1 µM
19 | CC(C)OC(=O)NCc1ccc(N2CCN(c3nnc(Cc4ccccc4)c4ccccc34)CC2)nc1 [Example 211] | 0.1 to 1 µM | < 0.1 µM | < 0.1 µM | < 0.1 µM
20 | CN(C)CC(=O)NCc1ccc(N2CCN(c3nnc(Cc4ccccc4)c4ccccc34)CC2)nc1 [Example 212] | 0.1 to 1 µM | < 0.1 µM | < 0.1 µM | < 0.1 µM
21 | CC(O)CC(=O)NCc1ccc(N2CCN(c3nnc(Cc4ccccc4)c4ccccc34)CC2)nc1 (stereo not shown) [Example 213] | 0.1 to 1 µM | < 0.1 µM | 0.1 to 1 µM | 0.1 to 1 µM

The next lines start with the values.

Row | IC50 (Gli-luciferase activity; [3]) | IC50 (Gli-luciferase activity; [4]) | IC50 [1] | IC50 [2] | Compound
22 | 0.1 to 1 µM | < 0.1 µM | < 0.1 µM | < 0.1 µM | CC(O)(CO)c1cnc(N2CCN(c3nnc(Cc4ccccc4)c4ccccc34)CC2)cn1 (stereo not shown) [Example 166, 2-[4-(4-Benzyl-phthalazin-1-yl)-3,4,5,6-tetrahydro-2H-[1,2′]bipyrazinyl-5′-yl]-propane-1,2-diol]
23 | 0.1 to 1 µM | < 0.1 µM | < 0.1 µM | < 0.1 µM | CC(O)(CO)c1ccc(N2CCN(c3nnc(Cc4ccccc4)c4ccccc34)CC2)nc1 (stereo not shown) [Example 167, 2-{6-[4-(4-Benzyl-phthalazin-1-yl)-piperazin-1-yl]-pyridin-3-yl}-propane-1,2-diol]
24 | 0.1 to 1 µM | < 0.1 µM | < 0.1 µM | < 0.1 µM | CN(C)CC(C)(O)c1cnc(N2CCN(c3nnc(Cc4ccccc4)c4ccccc34)CC2)cn1 (stereo not shown) [Example 169, 2-[4-(4-Benzyl-phthalazin-1-yl)-3,4,5,6-tetrahydro-2H-[1,2′]bipyrazinyl-5′-yl]-1-dimethylamino-propan-2-ol]
25 | 0.1 to 1 µM | < 0.1 µM | 0.1 to 1 µM | 0.1 to 1 µM | CC(O)(CN1CCC(O)CC1)c1cnc(N2CCN(c3nnc(Cc4ccccc4)c4ccccc34)CC2)cn1 (stereo not shown) [Example 170, 1-{2-[4-(4-Benzyl-phthalazin-1-yl)-3,4,5,6-tetrahydro-2H-[1,2′]bipyrazinyl-5′-yl]-2-hydroxy-propyl}-piperidin-4-ol]
26 | 0.1 to 1 µM | < 0.1 µM | < 0.1 µM | < 0.1 µM | O=C(Cc1ccc(N2CCN(c3nnc(Cc4ccccc4)c4ccccc34)CC2)nc1)N1CCCC1 [Example 171, 2-{6-[4-(4-Benzyl-phthalazin-1-yl)-piperazin-1-yl]-pyridin-3-yl}-1-pyrrolidin-1-yl-ethanone]
27 | < 0.1 µM | < 0.1 µM | < 0.1 µM | < 0.1 µM | CC(C)(O)Cc1ccc(N2CCN(c3nnc(Cc4ccccc4)c4ccccc34)CC2)nc1 [Example 172, 1-{6-[4-(4-Benzyl-phthalazin-1-yl)-piperazin-1-yl]-pyridin-3-yl}-2-methyl-propan-2-ol]
28 | 0.1 to 1 µM | < 0.1 µM | < 0.1 µM | < 0.1 µM | Cc1ccc(Cc2nnc(N3CCN(c4ccc(C#N)cn4)CC3)c3ccccc23)cc1 [Example 173]
29 | 0.1 to 1 µM | 0.1 to 1 µM | < 0.1 µM | < 0.1 µM | N#Cc1ccc(N2CCN(c3nnc(Cc4ccc(Cl)cc4Cl)c4ccccc34)CC2)nc1 [Example 177]
30 | 0.1 to 1 µM | 0.1 to 1 µM | 0.1 to 1 µM | 0.1 to 1 µM | N#Cc1ccc(N2CCN(c3nnc(Cc4ccc(Cl)c(C(F)(F)F)c4)c4ccccc34)CC2)nc1 [Example 178]
31 | 0.1 to 1 µM | < 0.1 µM | 0.1 to 1 µM | < 0.1 µM | N#Cc1ccc(N2CCN(c3nnc(Cc4ccc(F)cc4)c4ccccc34)CC2)nc1 [Example 181]
32 | 0.1 to 1 µM | 0.1 to 1 µM | 0.1 to 1 µM | 0.1 to 1 µM | N#Cc1ccc(N2CCN(c3nnc(Cc4cccc(F)c4)c4ccccc34)CC2)nc1 [Example 182]
33 | 0.1 to 1 µM | 0.1 to 1 µM | < 0.1 µM | < 0.1 µM | CCOC(=O)c1ccc(N2CCN(c3nnc(Cc4ccccc4F)c4ccccc34)CC2)nc1 [Example 184]
34 | < 0.1 µM | < 0.1 µM | < 0.1 µM | < 0.1 µM | CC(C)(O)c1ccc(N2CCN(c3nnc(Cc4ccc(F)cc4)c4ccccc34)CC2)nc1 [Example 191, 2-(6-{4-[4-(4-Fluoro-benzyl)-phthalazin-1-yl]-piperazin-1-yl}-pyridin-3-yl)-propan-2-ol]
35 | < 0.1 µM | < 0.1 µM | < 0.1 µM | < 0.1 µM | CC(C)(O)c1ccc(N2CCN(c3nnc(Cc4ccc(F)cc4F)c4ccccc34)CC2)nc1 [Example 193]
36 | < 0.1 µM | < 0.1 µM | < 0.1 µM | < 0.1 µM | C[C@H]1CN(c2ccc(C(C)(C)O)cn2)CCN1c1nnc(Cc2ccc(F)cc2F)c2ccccc12 [Example 195]
37 | < 0.1 µM | < 0.1 µM | < 0.1 µM | < 0.1 µM | C[C@H]1CN(c2ccc(C(C)(C)O)cn2)CCN1c1nnc(Cc2ccccc2Cl)c2ccccc12 [Example 196]
38 | < 0.1 µM | < 0.1 µM | 0.1 to 1 µM | 0.1 to 1 µM | COCC(=O)NCc1ccc(N2CCN(c3nnc(Cc4ccccc4)c4ccccc34)CC2)nc1 [Example 208]
39 | < 0.1 µM | < 0.1 µM | < 0.1 µM | < 0.1 µM | CC(C)CC(=O)NCc1ccc(N2CCN(c3nnc(Cc4ccccc4)c4ccccc34)CC2)nc1 [Example 210]
40 | < 0.1 µM | < 0.1 µM | < 0.1 µM | < 0.1 µM | CC(=O)NCc1ccc(N2CCN(c3nnc(Cc4ccccc4)c4ccccc34)[C@@H](C)C2)nc1 [Example 216]
